Experimental data reported in ChEMBL document CHEMBL3870316, “Design, synthesis and structure-activity relationships of novel 4-phenoxyquinoline derivatives containing 1,2,4-triazolone moiety as c-Met kinase inhibitors” (Eur J Med Chem, 2016).

What was measured:
[1] = biological target: Mast/stem cell growth factor receptor Kit (Homo sapiens, UniProt P10721); experiment: Inhibition of c-Kit (unknown origin) after 30 mins by HTRF assay
[2] = test system: A549; experiment: Potency index, ratio of foretinib IC50 to compound IC50 for human A549 cells; format: functional
[3] = organism: Homo sapiens; experiment: Selectivity ratio of IC50 for VEGFR2 (unknown origin) to IC50 for c-MET (unknown origin)
[4] = Cytotoxicity against c-Met over-expressed human HT-29 cells assessed as cell growth inhibition after 72 hrs by MTT assay; conditions: HT-29, 72 h
[5] = biological target: Platelet-derived growth factor receptor alpha (Homo sapiens, UniProt P16234); experiment: Inhibition of PDGFRalpha (unknown origin) after 30 mins by HTRF assay
[6] = biological target: Hepatocyte growth factor receptor (Homo sapiens, UniProt P08581); experiment: Inhibition of c-MET (unknown origin) using poly(Glu, Tyr)4:1 as substrate after 30 mins by HTRF assay
Hepatocyte growth factor receptor, sequence (P08581 whole entry): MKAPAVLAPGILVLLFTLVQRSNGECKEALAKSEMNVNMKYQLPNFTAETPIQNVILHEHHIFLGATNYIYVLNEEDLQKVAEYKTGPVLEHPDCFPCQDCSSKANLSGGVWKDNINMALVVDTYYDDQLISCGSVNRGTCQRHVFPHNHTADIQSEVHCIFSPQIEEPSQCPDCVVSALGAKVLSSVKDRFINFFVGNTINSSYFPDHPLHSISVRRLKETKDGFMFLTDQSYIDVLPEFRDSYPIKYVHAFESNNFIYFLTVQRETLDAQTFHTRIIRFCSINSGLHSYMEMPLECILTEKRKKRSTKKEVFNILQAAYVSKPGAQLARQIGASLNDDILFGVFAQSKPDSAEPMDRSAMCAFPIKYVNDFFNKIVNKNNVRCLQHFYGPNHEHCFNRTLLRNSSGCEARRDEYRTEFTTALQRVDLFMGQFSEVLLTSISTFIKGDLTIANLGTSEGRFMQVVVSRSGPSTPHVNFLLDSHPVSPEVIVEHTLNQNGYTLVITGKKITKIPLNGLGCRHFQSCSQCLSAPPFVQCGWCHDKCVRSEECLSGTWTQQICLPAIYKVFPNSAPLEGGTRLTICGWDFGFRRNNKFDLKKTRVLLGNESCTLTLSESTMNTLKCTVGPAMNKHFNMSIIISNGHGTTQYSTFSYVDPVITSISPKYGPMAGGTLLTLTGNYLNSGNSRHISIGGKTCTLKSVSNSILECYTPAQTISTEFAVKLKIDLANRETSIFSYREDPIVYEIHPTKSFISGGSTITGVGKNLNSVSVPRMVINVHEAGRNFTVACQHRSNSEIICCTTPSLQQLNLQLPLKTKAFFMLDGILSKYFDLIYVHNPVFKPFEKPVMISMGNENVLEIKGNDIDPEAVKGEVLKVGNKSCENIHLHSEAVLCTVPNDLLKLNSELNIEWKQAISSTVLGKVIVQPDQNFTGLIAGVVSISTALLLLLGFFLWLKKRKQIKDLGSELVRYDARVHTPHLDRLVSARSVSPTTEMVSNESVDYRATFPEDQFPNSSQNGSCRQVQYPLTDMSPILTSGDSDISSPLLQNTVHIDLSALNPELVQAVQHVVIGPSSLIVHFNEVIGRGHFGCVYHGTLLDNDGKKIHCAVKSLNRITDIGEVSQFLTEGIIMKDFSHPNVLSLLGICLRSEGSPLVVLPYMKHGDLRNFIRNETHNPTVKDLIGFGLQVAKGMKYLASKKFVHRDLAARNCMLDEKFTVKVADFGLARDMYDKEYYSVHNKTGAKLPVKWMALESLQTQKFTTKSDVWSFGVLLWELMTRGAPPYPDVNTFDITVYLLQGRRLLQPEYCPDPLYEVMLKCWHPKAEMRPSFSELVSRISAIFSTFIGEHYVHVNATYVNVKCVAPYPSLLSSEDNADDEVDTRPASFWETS

[7] = test system: MKN-45; experiment: Potency index, ratio of foretinib IC50 to compound IC50 for human MKN45 cells; format: functional
[8] = Cytotoxicity against c-Met over-expressed human MKN45 cells assessed as cell growth inhibition after 72 hrs by MTT assay; conditions: MKN-45, 72 h
[9] = biological target: Epidermal growth factor receptor (Homo sapiens, UniProt P00533); experiment: Inhibition of EGFR (unknown origin) after 30 mins by HTRF assay
Epidermal growth factor receptor, sequence (P00533 whole entry): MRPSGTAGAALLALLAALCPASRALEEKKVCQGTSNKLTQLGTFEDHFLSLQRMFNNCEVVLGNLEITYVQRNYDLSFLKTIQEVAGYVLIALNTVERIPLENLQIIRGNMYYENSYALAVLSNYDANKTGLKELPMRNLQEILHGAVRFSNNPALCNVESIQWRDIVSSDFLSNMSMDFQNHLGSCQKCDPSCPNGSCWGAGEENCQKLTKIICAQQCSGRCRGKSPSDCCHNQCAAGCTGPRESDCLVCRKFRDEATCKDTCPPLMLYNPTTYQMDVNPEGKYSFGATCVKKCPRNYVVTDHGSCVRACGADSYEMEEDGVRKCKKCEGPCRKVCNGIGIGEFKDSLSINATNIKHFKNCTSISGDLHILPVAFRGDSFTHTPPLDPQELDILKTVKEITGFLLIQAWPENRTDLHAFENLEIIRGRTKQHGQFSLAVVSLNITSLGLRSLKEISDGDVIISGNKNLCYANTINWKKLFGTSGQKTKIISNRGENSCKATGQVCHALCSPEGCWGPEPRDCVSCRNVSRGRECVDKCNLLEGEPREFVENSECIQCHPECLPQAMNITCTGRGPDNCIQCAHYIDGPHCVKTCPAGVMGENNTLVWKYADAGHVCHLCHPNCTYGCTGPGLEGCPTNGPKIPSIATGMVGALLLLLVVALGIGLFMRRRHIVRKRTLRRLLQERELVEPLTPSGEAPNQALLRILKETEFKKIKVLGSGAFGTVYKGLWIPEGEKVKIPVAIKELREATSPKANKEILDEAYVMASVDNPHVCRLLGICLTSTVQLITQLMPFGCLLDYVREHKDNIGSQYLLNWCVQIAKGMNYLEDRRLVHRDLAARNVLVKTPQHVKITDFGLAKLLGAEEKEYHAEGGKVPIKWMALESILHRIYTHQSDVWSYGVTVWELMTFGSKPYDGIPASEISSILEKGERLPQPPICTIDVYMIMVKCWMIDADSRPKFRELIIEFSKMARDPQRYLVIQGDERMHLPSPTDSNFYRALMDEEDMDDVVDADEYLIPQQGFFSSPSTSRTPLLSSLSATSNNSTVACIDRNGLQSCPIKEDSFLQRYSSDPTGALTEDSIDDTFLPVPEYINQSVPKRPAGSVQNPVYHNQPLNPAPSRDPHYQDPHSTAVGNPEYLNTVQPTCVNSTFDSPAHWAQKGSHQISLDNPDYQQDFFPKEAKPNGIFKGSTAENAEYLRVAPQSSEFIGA

[10] = test system: HT-29; experiment: Potency index, ratio of foretinib IC50 to compound IC50 for human HT-29 cells; format: functional
[11] = biological target: Macrophage-stimulating protein receptor (Homo sapiens, UniProt Q04912); experiment: Inhibition of Ron (unknown origin) after 30 mins by HTRF assay
[12] = Cytotoxicity against c-Met over-expressed human H460 cells assessed as cell growth inhibition after 72 hrs by MTT assay; conditions: NCI-H460, 72 h
[13] = biological target: Vascular endothelial growth factor receptor 2 (Homo sapiens, UniProt P35968); experiment: Inhibition of VEGFR2 (unknown origin) after 30 mins by HTRF assay
Vascular endothelial growth factor receptor 2, sequence (P35968 whole entry): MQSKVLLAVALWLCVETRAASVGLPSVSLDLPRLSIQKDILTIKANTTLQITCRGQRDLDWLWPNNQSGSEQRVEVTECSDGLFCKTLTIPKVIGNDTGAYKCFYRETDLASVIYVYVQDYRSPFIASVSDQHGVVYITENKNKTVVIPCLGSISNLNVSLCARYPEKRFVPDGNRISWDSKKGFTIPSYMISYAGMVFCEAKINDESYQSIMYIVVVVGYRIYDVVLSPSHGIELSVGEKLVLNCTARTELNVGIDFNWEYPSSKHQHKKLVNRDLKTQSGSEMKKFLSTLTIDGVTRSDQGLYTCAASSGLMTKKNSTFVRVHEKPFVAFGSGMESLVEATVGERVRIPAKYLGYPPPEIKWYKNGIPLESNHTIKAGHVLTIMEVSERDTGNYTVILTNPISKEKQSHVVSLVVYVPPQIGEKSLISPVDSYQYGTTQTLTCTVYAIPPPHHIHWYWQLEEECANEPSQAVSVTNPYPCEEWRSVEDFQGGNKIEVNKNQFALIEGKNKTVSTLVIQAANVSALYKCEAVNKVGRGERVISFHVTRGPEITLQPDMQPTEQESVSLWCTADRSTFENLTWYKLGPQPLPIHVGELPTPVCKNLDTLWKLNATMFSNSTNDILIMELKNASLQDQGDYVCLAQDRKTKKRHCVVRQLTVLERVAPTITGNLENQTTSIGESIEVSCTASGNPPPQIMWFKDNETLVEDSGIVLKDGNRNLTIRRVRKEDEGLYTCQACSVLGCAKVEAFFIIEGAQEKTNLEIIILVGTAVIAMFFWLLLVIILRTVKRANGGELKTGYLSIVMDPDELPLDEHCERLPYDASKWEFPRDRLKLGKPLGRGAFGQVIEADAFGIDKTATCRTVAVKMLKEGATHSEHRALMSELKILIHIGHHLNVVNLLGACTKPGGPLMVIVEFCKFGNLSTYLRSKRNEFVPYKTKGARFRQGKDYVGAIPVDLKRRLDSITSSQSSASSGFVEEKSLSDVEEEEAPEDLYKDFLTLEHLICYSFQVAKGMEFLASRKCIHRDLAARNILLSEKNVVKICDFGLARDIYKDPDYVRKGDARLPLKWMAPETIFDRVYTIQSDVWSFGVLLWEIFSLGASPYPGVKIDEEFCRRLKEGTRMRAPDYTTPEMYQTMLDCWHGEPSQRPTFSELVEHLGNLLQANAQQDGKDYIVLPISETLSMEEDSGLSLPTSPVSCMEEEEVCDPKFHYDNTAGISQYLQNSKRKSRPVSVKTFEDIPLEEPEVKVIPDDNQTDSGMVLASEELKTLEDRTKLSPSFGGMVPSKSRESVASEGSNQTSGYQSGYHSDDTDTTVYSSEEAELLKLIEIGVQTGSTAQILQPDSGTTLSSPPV

[14] = biological target: T1, Receptor-type tyrosine-protein kinase FLT3 (Homo sapiens, UniProt P36888); experiment: Inhibition of FLT3 (unknown origin) after 30 mins by HTRF assay
T1 sequence (P36888 whole entry): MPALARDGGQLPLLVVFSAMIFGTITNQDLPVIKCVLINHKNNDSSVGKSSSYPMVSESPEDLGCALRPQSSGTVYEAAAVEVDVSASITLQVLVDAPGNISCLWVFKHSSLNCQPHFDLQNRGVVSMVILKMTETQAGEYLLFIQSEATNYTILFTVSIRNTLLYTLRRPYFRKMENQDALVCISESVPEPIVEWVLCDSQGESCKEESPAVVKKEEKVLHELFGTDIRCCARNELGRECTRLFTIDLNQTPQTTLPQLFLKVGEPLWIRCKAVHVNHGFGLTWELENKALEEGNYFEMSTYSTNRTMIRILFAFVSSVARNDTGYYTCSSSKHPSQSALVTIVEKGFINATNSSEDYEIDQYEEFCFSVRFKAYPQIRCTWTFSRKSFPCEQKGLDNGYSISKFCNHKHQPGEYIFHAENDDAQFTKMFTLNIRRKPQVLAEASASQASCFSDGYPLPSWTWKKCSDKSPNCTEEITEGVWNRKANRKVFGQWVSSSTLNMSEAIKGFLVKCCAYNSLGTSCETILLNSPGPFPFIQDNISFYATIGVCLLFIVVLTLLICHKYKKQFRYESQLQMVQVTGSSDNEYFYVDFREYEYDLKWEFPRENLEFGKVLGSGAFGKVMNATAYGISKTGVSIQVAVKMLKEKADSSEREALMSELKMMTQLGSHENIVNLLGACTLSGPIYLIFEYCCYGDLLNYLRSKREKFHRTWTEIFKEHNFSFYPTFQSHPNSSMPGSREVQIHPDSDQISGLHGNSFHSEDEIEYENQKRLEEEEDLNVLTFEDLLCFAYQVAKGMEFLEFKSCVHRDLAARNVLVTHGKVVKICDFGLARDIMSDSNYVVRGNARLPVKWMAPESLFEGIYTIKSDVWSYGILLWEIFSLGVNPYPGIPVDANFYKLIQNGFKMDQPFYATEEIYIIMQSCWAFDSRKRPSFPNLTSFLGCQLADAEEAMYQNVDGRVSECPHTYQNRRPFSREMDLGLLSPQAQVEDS

[15] = Potency index, ratio of foretinib IC50 to compound IC50 for human H460 cells; format: functional
[16] = Cytotoxicity against c-Met over-expressed human A549 cells assessed as cell growth inhibition after 72 hrs by MTT assay; conditions: A549, 72 h

Mast/stem cell growth factor receptor Kit, sequence (P10721 whole entry): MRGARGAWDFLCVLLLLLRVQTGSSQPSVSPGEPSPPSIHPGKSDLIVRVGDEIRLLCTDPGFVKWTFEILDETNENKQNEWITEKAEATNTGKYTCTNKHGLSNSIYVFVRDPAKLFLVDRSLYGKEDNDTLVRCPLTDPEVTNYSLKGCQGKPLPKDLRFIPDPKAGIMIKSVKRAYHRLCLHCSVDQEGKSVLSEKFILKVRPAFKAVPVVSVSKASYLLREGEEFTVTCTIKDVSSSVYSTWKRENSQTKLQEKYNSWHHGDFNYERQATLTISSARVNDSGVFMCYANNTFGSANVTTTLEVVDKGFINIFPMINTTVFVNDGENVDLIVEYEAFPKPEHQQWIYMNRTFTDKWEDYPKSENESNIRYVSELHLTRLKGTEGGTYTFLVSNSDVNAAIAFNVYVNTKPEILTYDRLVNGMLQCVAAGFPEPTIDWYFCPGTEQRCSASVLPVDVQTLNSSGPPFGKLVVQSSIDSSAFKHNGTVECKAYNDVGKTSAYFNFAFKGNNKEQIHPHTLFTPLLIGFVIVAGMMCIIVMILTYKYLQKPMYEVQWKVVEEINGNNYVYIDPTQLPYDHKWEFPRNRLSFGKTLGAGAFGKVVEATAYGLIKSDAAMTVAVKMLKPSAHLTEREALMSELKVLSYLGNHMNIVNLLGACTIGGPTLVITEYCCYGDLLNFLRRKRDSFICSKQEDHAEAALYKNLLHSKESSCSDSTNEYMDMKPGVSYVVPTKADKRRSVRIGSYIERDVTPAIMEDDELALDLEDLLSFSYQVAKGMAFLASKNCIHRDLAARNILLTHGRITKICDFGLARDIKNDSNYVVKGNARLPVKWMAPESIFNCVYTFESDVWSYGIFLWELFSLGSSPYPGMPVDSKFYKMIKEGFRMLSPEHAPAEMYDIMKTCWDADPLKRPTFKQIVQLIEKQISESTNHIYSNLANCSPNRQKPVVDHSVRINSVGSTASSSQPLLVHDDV

In the case of `COc1cc2c(Oc3ccc(NC(=O)c4nn(-c5ccccc5F)c(=O)n4C)cc3F)ccnc2cc1OCCCN1CCN(C)CC1`, the IC50 [1] is reported as 0.00338 µM, the “Ratio IC50” value [2] is reported as 1.1 - 2.3 and the Ratio IC50 [3] is reported as 306. It also gave an IC50 [4] of 0.08 µM, an IC50 [5] of 0.0952 µM and an IC50 [6] of 0.00157 µM. For the same molecule, the “Ratio IC50” value [7] was 1.1 - 2.3, the IC50 [8] was 0.03 µM and the IC50 [9] was greater than 10 µM. The “Ratio IC50” value [10] was 1.1 - 2.3, the IC50 [11] was 0.141 µM and the IC50 [12] was 0.14 µM. For the same molecule, the IC50 [13] was 0.48 µM, the IC50 [14] was 0.00819 µM and the “Ratio IC50” value [15] was 1.1 - 2.3. The IC50 [16] was 0.11 µM.
